Reference: US20020111274A1, “1-alkyl-3-[1-(substituted phenyl) benzotriazol-6-yl] uracils” (BASF Aktiengesellschaft, priority 2000, published 2002)

How the values were obtained:
Set-up in all cases: scale not given here
AMBEL Ragweed, Common [1] = assay: Preemergence herbicidal evaluation, AMBEL; format: in vivo, Ambrosia artemisifolia, L.; settings: preemergence
Summary of the method: (§1)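 First, seed is blended with potting soil and sown over roughly an inch of soil per cup. Next, the surface is sprayed with an aqueous acetone solution delivering about 0.013–0.800 kg/ha. Finally, cups are grown in the greenhouse and rated after 4–5 weeks.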

GALAP Galium [2] = assay: Postemergence herbicidal evaluation, GALAP; format: in vivo, Galium aparine; settings: postemergence spray, rated about two-three weeks after treatment
Summary of the method: (§2)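 Seedlings grown about two weeks were sprayed with compound in 80/20 acetone/water containing 1.0% methylated seed oil, at the equivalent of about 0.006 to 0.400 kg/ha, through a nozzle at 40 psi. Plants were kept in the greenhouse and rated visually about two to three weeks after treatment.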

SETVI Foxtail, Green [3] = assay: Postemergence herbicidal evaluation, SETVI; format: in vivo, Setaria viridis, (L.) Beau; settings: postemergence spray, rated about two-three weeks after treatment
Summary of the method: as §2

ECHOG Barnyardgrass [4] = assay: Preemergence herbicidal evaluation, ECHOG; format: in vivo, Echinochloa crus-galli, (L.) Beau; settings: preemergence
Summary of the method: as §1

[5] = test system: CHEAL Lambsquarters, Common; assay: Postemergence herbicidal evaluation, CHEAL; format: in vivo, Chenopodium album, L.; settings: postemergence spray, rated about two-three weeks after treatment
Summary of the method: as §2

[6] = test system: TRZAWR Wheat, Winter, cv Riband; assay: Preemergence herbicidal evaluation, TRZAWR; format: in vivo, Triticum aestivum; settings: preemergence
Summary of the method: as §1

[7] = test system: IPOHE Morningglory, Ivyleaf; assay: Preemergence herbicidal evaluation, IPOHE; format: in vivo, Ipomoea hederacea, (L.) Jacq.; settings: preemergence
Summary of the method: as §1

ORYSAT Rice, Tebonnet [8] = assay: Postemergence herbicidal evaluation, ORYSAT; format: in vivo, Oryza sativa, (L.); settings: postemergence spray, rated about two-three weeks after treatment
Summary of the method: as §2

SETVI Foxtail, Green [9] = assay: Preemergence herbicidal evaluation, SETVI; format: in vivo, Setaria viridis, (L.) Beau; settings: preemergence
Summary of the method: as §1

ZEAMX Corn, Field [10] = assay: Postemergence herbicidal evaluation, ZEAMX; format: in vivo, Zea mays, L. (Sammel-Bezeichnung); settings: postemergence spray, rated about two-three weeks after treatment
Summary of the method: as §2

[11] = test system: IPOHE Morningglory, Ivyleaf; assay: Postemergence herbicidal evaluation, IPOHE; format: in vivo, Ipomoea hederacea, (L.) Jacq.; settings: postemergence spray, rated about two-three weeks after treatment
Summary of the method: as §2

GALAP Galium [12] = assay: Preemergence herbicidal evaluation, GALAP; format: in vivo, Galium aparine; settings: preemergence
Summary of the method: as §1

[13] = test system: CHEAL Lambsquarters, Common; assay: Preemergence herbicidal evaluation, CHEAL; format: in vivo, Chenopodium album, L.; settings: preemergence
Summary of the method: as §1

ORYSAT Rice, Tebonnet [14] = assay: Preemergence herbicidal evaluation, ORYSAT; format: in vivo, Oryza sativa, (L.); settings: preemergence
Summary of the method: as §1

ABUTH Velvetleaf [15] = assay: Postemergence herbicidal evaluation, ABUTH; format: in vivo, Abutilon theophrasti, Medic.; settings: postemergence spray, rated about two-three weeks after treatment
Summary of the method: as §2

ZEAMX Corn, Field [16] = assay: Preemergence herbicidal evaluation, ZEAMX; format: in vivo, Zea mays, L. (Sammel-Bezeichnung); settings: preemergence
Summary of the method: as §1

CASOB Sicklepod [17] = assay: Preemergence herbicidal evaluation, CASOB; format: in vivo, Cassia obtusifolia, L.; settings: preemergence
Summary of the method: as §1

ECHOG Barnyardgrass [18] = assay: Postemergence herbicidal evaluation, ECHOG; format: in vivo, Echinochloa crus-galli, (L.) Beau; settings: postemergence spray, rated about two-three weeks after treatment
Summary of the method: as §2

[19] = test system: TRZAWR Wheat, Winter, cv Riband; assay: Postemergence herbicidal evaluation, TRZAWR; format: in vivo, Triticum aestivum; settings: postemergence spray, rated about two-three weeks after treatment
Summary of the method: as §2

GLXMAW Soybean, Williams [20] = assay: Postemergence herbicidal evaluation, GLXMAW; format: in vivo, Glycine max, (L.) Merr. cv Williams; settings: postemergence spray, rated about two-three weeks after treatment
Summary of the method: as §2

ABUTH Velvetleaf [21] = assay: Preemergence herbicidal evaluation, ABUTH; format: in vivo, Abutilon theophrasti, Medic.; settings: preemergence
Summary of the method: as §1

CASOB Sicklepod [22] = assay: Postemergence herbicidal evaluation, CASOB; format: in vivo, Cassia obtusifolia, L.; settings: postemergence spray, rated about two-three weeks after treatment
Summary of the method: as §2

AMBEL Ragweed, Common [23] = assay: Postemergence herbicidal evaluation, AMBEL; format: in vivo, Ambrosia artemisifolia, L.; settings: postemergence spray, rated about two-three weeks after treatment
Summary of the method: as §2

GLXMAW Soybean, Williams [24] = assay: Preemergence herbicidal evaluation, GLXMAW; format: in vivo, Glycine max, (L.) Merr. cv Williams; settings: preemergence
Summary of the method: as §1

C#CCOC(=O)COc1ccc(C)cc1-n1nnc2cc(F)c(-n3c(=O)cc(C(F)(F)F)n(C)c3=O)cc21 [Example 40]
AMBEL herbicidal rating (AMBEL Ragweed, Common [1]; rate 0.016 kg/ha): 0.0 | AMBEL herbicidal rating (AMBEL Ragweed, Common [1]; rate 0.032 kg/ha): 4.0 | AMBEL herbicidal rating (AMBEL Ragweed, Common [1]; rate 0.062 kg/ha): 3.0 | AMBEL herbicidal rating (AMBEL Ragweed, Common [1]; rate 0.125 kg/ha): 4.0 | Postemergence herbicidal rating GALAP (GALAP Galium [2]; 0.008 kg/ha): 1.0 | Postemergence herbicidal rating GALAP (GALAP Galium [2]; 0.016 kg/ha): 2.0 | Postemergence herbicidal rating GALAP (GALAP Galium [2]; 0.032 kg/ha): 2.0 | Postemergence herbicidal rating GALAP (GALAP Galium [2]; 0.062 kg/ha): 5.0 | Postemergence herbicidal rating SETVI (SETVI Foxtail, Green [3]; 0.008 kg/ha): 6.0 | Postemergence herbicidal rating SETVI (SETVI Foxtail, Green [3]; 0.016 kg/ha): 9.0 | Postemergence herbicidal rating SETVI (SETVI Foxtail, Green [3]; 0.032 kg/ha): 9.0 | Postemergence herbicidal rating SETVI (SETVI Foxtail, Green [3]; 0.062 kg/ha): 9.0 | ECHCG herbicidal rating (ECHOG Barnyardgrass [4]; rate 0.016 kg/ha): 0.0 | ECHCG herbicidal rating (ECHOG Barnyardgrass [4]; rate 0.032 kg/ha): 0.0 | ECHCG herbicidal rating (ECHOG Barnyardgrass [4]; rate 0.062 kg/ha): 0.0 | ECHCG herbicidal rating (ECHOG Barnyardgrass [4]; rate 0.125 kg/ha): 4.0 | Postemergence herbicidal rating CHEAL ([5]; 0.008 kg/ha): 4.0 | Postemergence herbicidal rating CHEAL ([5]; 0.016 kg/ha): 3.0 | Postemergence herbicidal rating CHEAL ([5]; 0.032 kg/ha): 7.0 | Postemergence herbicidal rating CHEAL ([5]; 0.062 kg/ha): 9.0 | TRZAWR herbicidal rating ([6]; rate 0.016 kg/ha): 0.0 | TRZAWR herbicidal rating ([6]; rate 0.032 kg/ha): 0.0 | TRZAWR herbicidal rating ([6]; rate 0.062 kg/ha): 0.0 | TRZAWR herbicidal rating ([6]; rate 0.125 kg/ha): 2.0 | IPOHE herbicidal rating ([7]; rate 0.016 kg/ha): 0.0 | IPOHE herbicidal rating ([7]; rate 0.032 kg/ha): 1.0 | IPOHE herbicidal rating ([7]; rate 0.062 kg/ha): 3.0 | IPOHE herbicidal rating ([7]; rate 0.125 kg/ha): 9.0 | Postemergence herbicidal rating ORYSAT (ORYSAT Rice, Tebonnet [8]; 0.008 kg/ha): 4.0 | Postemergence herbicidal rating ORYSAT (ORYSAT Rice, Tebonnet [8]; 0.016 kg/ha): 5.0 | Postemergence herbicidal rating ORYSAT (ORYSAT Rice, Tebonnet [8]; 0.032 kg/ha): 5.0 | Postemergence herbicidal rating ORYSAT (ORYSAT Rice, Tebonnet [8]; 0.062 kg/ha): 6.5 | SETVI herbicidal rating (SETVI Foxtail, Green [9]; rate 0.016 kg/ha): 0.0 | SETVI herbicidal rating (SETVI Foxtail, Green [9]; rate 0.032 kg/ha): 4.0 | SETVI herbicidal rating (SETVI Foxtail, Green [9]; rate 0.062 kg/ha): 5.0 | SETVI herbicidal rating (SETVI Foxtail, Green [9]; rate 0.125 kg/ha): 6.0 | Postemergence herbicidal rating ZEAMX (ZEAMX Corn, Field [10]; 0.008 kg/ha): 5.0 | Postemergence herbicidal rating ZEAMX (ZEAMX Corn, Field [10]; 0.016 kg/ha): 7.5 | Postemergence herbicidal rating ZEAMX (ZEAMX Corn, Field [10]; 0.032 kg/ha): 7.5 | Postemergence herbicidal rating ZEAMX (ZEAMX Corn, Field [10]; 0.062 kg/ha): 8.5 | Postemergence herbicidal rating IPOHE ([11]; 0.008 kg/ha): 9.0 | Postemergence herbicidal rating IPOHE ([11]; 0.016 kg/ha): 9.0 | Postemergence herbicidal rating IPOHE ([11]; 0.032 kg/ha): 9.0 | Postemergence herbicidal rating IPOHE ([11]; 0.062 kg/ha): 9.0 | GALAP herbicidal rating (GALAP Galium [12]; rate 0.032 kg/ha): 0.0 | GALAP herbicidal rating (GALAP Galium [12]; rate 0.062 kg/ha): 7.0 | GALAP herbicidal rating (GALAP Galium [12]; rate 0.125 kg/ha): 9.0 | CHEAL herbicidal rating ([13]; rate 0.016 kg/ha): 9.0 | CHEAL herbicidal rating ([13]; rate 0.032 kg/ha): 9.0 | CHEAL herbicidal rating ([13]; rate 0.062 kg/ha): 9.0 | CHEAL herbicidal rating ([13]; rate 0.125 kg/ha): 9.0 | ORYSAT herbicidal rating (ORYSAT Rice, Tebonnet [14]; rate 0.016 kg/ha): 0.0 | ORYSAT herbicidal rating (ORYSAT Rice, Tebonnet [14]; rate 0.032 kg/ha): 0.0 | ORYSAT herbicidal rating (ORYSAT Rice, Tebonnet [14]; rate 0.062 kg/ha): 0.0 | ORYSAT herbicidal rating (ORYSAT Rice, Tebonnet [14]; rate 0.125 kg/ha): 2.0 | Postemergence herbicidal rating ABUTH (ABUTH Velvetleaf [15]; 0.008 kg/ha): 9.0 | Postemergence herbicidal rating ABUTH (ABUTH Velvetleaf [15]; 0.016 kg/ha): 9.0 | Postemergence herbicidal rating ABUTH (ABUTH Velvetleaf [15]; 0.032 kg/ha): 9.0 | Postemergence herbicidal rating ABUTH (ABUTH Velvetleaf [15]; 0.062 kg/ha): 9.0 | ZEAMX herbicidal rating (ZEAMX Corn, Field [16]; rate 0.016 kg/ha): 0.0 | ZEAMX herbicidal rating (ZEAMX Corn, Field [16]; rate 0.032 kg/ha): 0.0 | ZEAMX herbicidal rating (ZEAMX Corn, Field [16]; rate 0.062 kg/ha): 1.0 | ZEAMX herbicidal rating (ZEAMX Corn, Field [16]; rate 0.125 kg/ha): 1.0 | CASOB herbicidal rating (CASOB Sicklepod [17]; rate 0.016 kg/ha): 0.0 | CASOB herbicidal rating (CASOB Sicklepod [17]; rate 0.032 kg/ha): 4.0 | CASOB herbicidal rating (CASOB Sicklepod [17]; rate 0.062 kg/ha): 3.0 | CASOB herbicidal rating (CASOB Sicklepod [17]; rate 0.125 kg/ha): 4.0 | Postemergence herbicidal rating ECHCG (ECHOG Barnyardgrass [18]; 0.008 kg/ha): 4.0 | Postemergence herbicidal rating ECHCG (ECHOG Barnyardgrass [18]; 0.016 kg/ha): 9.0 | Postemergence herbicidal rating ECHCG (ECHOG Barnyardgrass [18]; 0.032 kg/ha): 9.0 | Postemergence herbicidal rating ECHCG (ECHOG Barnyardgrass [18]; 0.062 kg/ha): 9.0 | Postemergence herbicidal rating TRZAWR ([19]; 0.008 kg/ha): 4.0 | Postemergence herbicidal rating TRZAWR ([19]; 0.016 kg/ha): 5.0 | Postemergence herbicidal rating TRZAWR ([19]; 0.032 kg/ha): 5.5 | Postemergence herbicidal rating TRZAWR ([19]; 0.062 kg/ha): 6.5 | Postemergence herbicidal rating GLXMAW (GLXMAW Soybean, Williams [20]; 0.008 kg/ha): 5.5 | Postemergence herbicidal rating GLXMAW (GLXMAW Soybean, Williams [20]; 0.016 kg/ha): 6.0 | Postemergence herbicidal rating GLXMAW (GLXMAW Soybean, Williams [20]; 0.032 kg/ha): 6.5 | Postemergence herbicidal rating GLXMAW (GLXMAW Soybean, Williams [20]; 0.062 kg/ha): 7.0 | ABUTH herbicidal rating (ABUTH Velvetleaf [21]; rate 0.016 kg/ha): 1.0 | ABUTH herbicidal rating (ABUTH Velvetleaf [21]; rate 0.032 kg/ha): 9.0 | ABUTH herbicidal rating (ABUTH Velvetleaf [21]; rate 0.062 kg/ha): 9.0 | ABUTH herbicidal rating (ABUTH Velvetleaf [21]; rate 0.125 kg/ha): 9.0 | Postemergence herbicidal rating CASOB (CASOB Sicklepod [22]; 0.008 kg/ha): 1.0 | Postemergence herbicidal rating CASOB (CASOB Sicklepod [22]; 0.016 kg/ha): 1.0 | Postemergence herbicidal rating CASOB (CASOB Sicklepod [22]; 0.032 kg/ha): 3.0 | Postemergence herbicidal rating CASOB (CASOB Sicklepod [22]; 0.062 kg/ha): 6.0 | Postemergence herbicidal rating AMBEL (AMBEL Ragweed, Common [23]; 0.008 kg/ha): 9.0 | Postemergence herbicidal rating AMBEL (AMBEL Ragweed, Common [23]; 0.016 kg/ha): 7.0 | Postemergence herbicidal rating AMBEL (AMBEL Ragweed, Common [23]; 0.032 kg/ha): 9.0 | Postemergence herbicidal rating AMBEL (AMBEL Ragweed, Common [23]; 0.062 kg/ha): 7.0 | GLXMAW herbicidal rating (GLXMAW Soybean, Williams [24]; rate 0.016 kg/ha): 0.0 | GLXMAW herbicidal rating (GLXMAW Soybean, Williams [24]; rate 0.032 kg/ha): 0.0 | GLXMAW herbicidal rating (GLXMAW Soybean, Williams [24]; rate 0.062 kg/ha): 1.0 | GLXMAW herbicidal rating (GLXMAW Soybean, Williams [24]; rate 0.125 kg/ha): 0.0
